The values below come from ChEMBL document CHEMBL1201862, “PubChem BioAssay data set” (2004).

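96-well plates; 48 h exposure; 5 concentrations. Endpoints by linear interpolation between flanking doses. Not reached: highest tested concentration assigned. Abbreviation: GI50, concentration required for 50% inhibition of growth.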 Activity calls are given as the source filed them. Cut-off read from the data, not from the text of the source: active = GI50 up to about 1.1 µM and inactive = higher. Where only a bound is given, the exact number is not on record here.

Test systems include SK-MEL-5; SF-268; SN12C; SK-OV-3; MDA-N; 786-0; HCT-116; IGROV-1; HCC 2998; UACC-257; M14; SR; K562; SK-MEL-2; NCI-H460; SW-620; HOP-92; NCI-H522; Hs-578T.
What all share (experiment): inhibition of tumour cell growth, NCI panel, 48 h

Consider `COc1ccc2o/c(=N\c3ccc(F)cc3)c(C(N)=O)cc2c1`, for which the GI50 in the experiment with SK-MEL-5 was > 100 µM (inactive); with SF-268, 43 µM (inactive); in the experiment with SN12C, 42 µM (inactive); in the experiment with SK-OV-3 it was 17 µM (inactive); in the experiment with MDA-N, > 100 µM (inactive); in the experiment on 786-0, 10.5 µM (inactive). Further, the GI50 is 22.8 µM (inactive) in the experiment on HCT-116; 79.3 µM (inactive) in the experiment with IGROV-1; > 100 µM (inactive) in the experiment on HCC 2998; > 100 µM (inactive) in the experiment on UACC-257; > 100 µM (inactive) in the experiment with M14; > 100 µM (inactive) in the experiment on SR. Also, the GI50 in the experiment on K562 was > 100 µM (inactive); in the experiment on SK-MEL-2, 22.8 µM (inactive); in the experiment on NCI-H460 it was > 100 µM (inactive); in the experiment with SW-620, > 100 µM (inactive); in the experiment with HOP-92, 27.4 µM (inactive); in the experiment on NCI-H522, 28.9 µM (inactive). Moreover, in the experiment with Hs-578T, the GI50 was 62.1 µM (inactive).

For `C[C@]12CC/C(=N\O)C=C1CC[C@@H]1[C@@H]2CC[C@]2(C)C(=N/O)/C(=C/c3ccncc3)C[C@@H]12`, the GI50 was 7 µM (inactive) in the experiment on SK-MEL-5; 28.7 µM (inactive) in the experiment with SF-268; 17.3 µM (inactive) in the experiment on SN12C; 51.5 µM (inactive) in the experiment with SK-OV-3; 21.7 µM (inactive) in the experiment with MDA-N; 24.7 µM (inactive) in the experiment on 786-0. For the same molecule, the GI50 with HCT-116 was 10 µM (inactive); in the experiment with IGROV-1 it was 53.8 µM (inactive); in the experiment with HCC 2998, 19.1 µM (inactive); with UACC-257 it was 28.4 µM (inactive); with M14, 13.5 µM (inactive); in the experiment on SR it was 12.7 µM (inactive). For the same molecule, the GI50 is 26.4 µM (inactive) with K562; 15 µM (inactive) with SK-MEL-2; 14.6 µM (inactive) in the experiment with NCI-H460; 37.4 µM (inactive) with SW-620; 30.5 µM (inactive) in the experiment on HOP-92; 27.2 µM (inactive) in the experiment on NCI-H522. In addition, the GI50 in the experiment with Hs-578T was 86.5 µM (inactive).

Turning to `CCOC(=O)c1cc([N+](=O)[O-])cc([N+](=O)[O-])c1Sc1[nH]cnc2ncnc1-2`, the GI50 in the experiment with SK-MEL-5 is 5.94 µM (inactive); with SF-268, 3.32 µM (inactive); in the experiment on SN12C, 2.21 µM (inactive); with SK-OV-3 it was 11 µM (inactive); with MDA-N, 1.82 µM (inactive); with 786-0, 0.824 µM (active). Besides, the GI50 is 2.12 µM (inactive) with HCT-116; 2.31 µM (inactive) in the experiment with IGROV-1; 11.9 µM (inactive) in the experiment on HCC 2998; 6.21 µM (inactive) with UACC-257; 0.869 µM (active) in the experiment with M14; 2.38 µM (inactive) in the experiment with SR. Further, the GI50 with K562 is 0.661 µM (active); with SK-MEL-2, 2.93 µM (inactive); with NCI-H460, 8.81 µM (inactive); with SW-620, 2.42 µM (inactive); in the experiment with HOP-92, 0.771 µM (active); in the experiment on NCI-H522, 1.55 µM (inactive). In addition, the GI50 in the experiment with Hs-578T was 6.92 µM (inactive).

For the molecule `CCCCCCCCCCOC1C(C(O)CNCCCN(C)C)OC2OC3(CCCCC3)OC21` (stereo not given), the GI50 was 1.89 µM (inactive) in the experiment with SK-MEL-5; 2.17 µM (inactive) in the experiment with SF-268; 2.33 µM (inactive) in the experiment with SN12C; 3.65 µM (inactive) in the experiment with SK-OV-3; 1.96 µM (inactive) in the experiment on MDA-N; 1.9 µM (inactive) with 786-0. In addition, the GI50 in the experiment with HCT-116 is 1.99 µM (inactive); in the experiment with IGROV-1, 1.93 µM (inactive); in the experiment with HCC 2998, 2.57 µM (inactive); with UACC-257 it was 4.05 µM (inactive); with M14 it was 2 µM (inactive); in the experiment with SR, 0.329 µM (active). Further, the GI50 in the experiment on K562 is 1.63 µM (inactive); in the experiment with SK-MEL-2 it was 2.32 µM (inactive); in the experiment with NCI-H460, 1.97 µM (inactive); with SW-620, 1.74 µM (inactive); in the experiment on HOP-92 it was 1.07 µM (active); in the experiment on NCI-H522, 1.82 µM (inactive). In addition, the GI50 in the experiment on Hs-578T is 3.17 µM (inactive).

Regarding `CC(C)(Cl)C(Br)CCC(C)(Cl)C(Br)CBr` (stereo not given), the GI50 with SK-MEL-5 was 18.2 µM (inactive); in the experiment on SF-268, 37.2 µM (inactive); in the experiment with SN12C, 22.1 µM (inactive); in the experiment with SK-OV-3 it was 39.2 µM (inactive); in the experiment with MDA-N, 31 µM (inactive); in the experiment with 786-0, 24.5 µM (inactive). Besides, the GI50 with HCT-116 is 18.8 µM (inactive); in the experiment on IGROV-1, 23.3 µM (inactive); in the experiment with HCC 2998, 38.1 µM (inactive); with UACC-257, 19.6 µM (inactive); in the experiment on M14, 34.5 µM (inactive); in the experiment with SR, 2.58 µM (inactive). Moreover, the GI50 is 22.5 µM (inactive) in the experiment with K562; 18.1 µM (inactive) with SK-MEL-2; 20 µM (inactive) in the experiment with NCI-H460; 27.5 µM (inactive) in the experiment on SW-620; 15.8 µM (inactive) in the experiment with HOP-92; 16.3 µM (inactive) in the experiment on NCI-H522. Also, the GI50 with Hs-578T is 35.7 µM (inactive).

On to `CC(C)(C)C1CCC2c3c([nH]c4ccccc34)C3C(=O)N(c4cccc(Cl)c4)C(=O)C3C2C1` (stereo not given), for which the GI50 was 13.5 µM (inactive) in the experiment with SK-MEL-5; 13 µM (inactive) in the experiment on SF-268; 5.71 µM (inactive) in the experiment on SN12C; 24.1 µM (inactive) in the experiment with SK-OV-3; 11 µM (inactive) in the experiment on MDA-N; 8.28 µM (inactive) with 786-0. Moreover, the GI50 in the experiment on HCT-116 was 6.3 µM (inactive); in the experiment on IGROV-1, 13.8 µM (inactive); in the experiment on HCC 2998, 3.72 µM (inactive); with UACC-257, 9.33 µM (inactive); in the experiment with M14, 9.98 µM (inactive); with SR, 4.36 µM (inactive). Moreover, the GI50 in the experiment with K562 was 2.44 µM (inactive); in the experiment on SK-MEL-2 it was 17 µM (inactive); with NCI-H460, 4.63 µM (inactive); in the experiment on SW-620, 9.62 µM (inactive); with HOP-92, 5.05 µM (inactive); with NCI-H522 it was 15.8 µM (inactive). Besides, the GI50 in the experiment on Hs-578T is 23.7 µM (inactive).

Turning to `CC(C)CC1NC(=O)C(C(C)C)NC(=O)CC(C)COC(=O)C(CC(C)C)N(C)C(=O)C(C(C)C)NC(=O)C(C(C)C)OC1=O` (stereo not given), the GI50 was > 50 µM (inactive) with SK-MEL-5; > 50 µM (inactive) with SF-268; > 50 µM (inactive) in the experiment with SN12C; 29.1 µM (inactive) with SK-OV-3; > 50 µM (inactive) in the experiment on MDA-N; 31.3 µM (inactive) with 786-0. Further, the GI50 in the experiment on HCT-116 was > 50 µM (inactive); in the experiment on IGROV-1, > 50 µM (inactive); in the experiment on HCC 2998, > 50 µM (inactive); in the experiment with UACC-257, > 50 µM (inactive); in the experiment on M14, 38.5 µM (inactive); in the experiment on SR, > 50 µM (inactive). Moreover, the GI50 in the experiment with K562 was > 50 µM (inactive); with SK-MEL-2, 18.2 µM (inactive); with NCI-H460 it was > 50 µM (inactive); with SW-620, > 50 µM (inactive); in the experiment on HOP-92 it was 26.5 µM (inactive); with NCI-H522 it was > 50 µM (inactive). In the experiment on Hs-578T, the GI50 is 26.7 µM (inactive).

On to `CNC(=O)N(C1=NCC(C)S1)c1ccc(C)c(C)c1` (stereo not given), for which the GI50 was 4.08 µM (inactive) with SK-MEL-5; 4.37 µM (inactive) in the experiment with SF-268; 7.23 µM (inactive) with SN12C; 4.28 µM (inactive) in the experiment on SK-OV-3; 0.443 µM (active) with MDA-N; 4.74 µM (inactive) in the experiment on 786-0. Further, the GI50 in the experiment on HCT-116 was 3.5 µM (inactive); with IGROV-1, 8.89 µM (inactive); with HCC 2998, 4.28 µM (inactive); in the experiment with UACC-257, 16.1 µM (inactive); in the experiment with M14, 1.13 µM (inactive); in the experiment with SR, 3.67 µM (inactive). In addition, the GI50 is 0.923 µM (active) in the experiment with K562; 1.87 µM (inactive) in the experiment on SK-MEL-2; 3.36 µM (inactive) in the experiment with NCI-H460; 3.48 µM (inactive) in the experiment with SW-620; 5.78 µM (inactive) in the experiment with HOP-92; 4.82 µM (inactive) in the experiment on NCI-H522. Further, the GI50 in the experiment on Hs-578T was 4.31 µM (inactive).

Regarding `COc1ccc2cc1Oc1ccc(cc1)CC1c3cc(OC)c(cc3CCN1C)Oc1c(OC)c(OC)cc3c1C(C2)N(C)CC3` (stereo not given), the GI50 was 6.79 µM (inactive) in the experiment with SK-MEL-5; 12.9 µM (inactive) in the experiment on SF-268; 9.02 µM (inactive) with SN12C; 29.4 µM (inactive) in the experiment with SK-OV-3; 10.5 µM (inactive) in the experiment with MDA-N; 13.1 µM (inactive) in the experiment on 786-0. Moreover, the GI50 in the experiment with HCT-116 is 19.1 µM (inactive); in the experiment with IGROV-1 it was 18.8 µM (inactive); in the experiment on HCC 2998, 9.62 µM (inactive); in the experiment on UACC-257, 6.75 µM (inactive); with M14, 4.91 µM (inactive); in the experiment on SR, 1.17 µM (inactive). Also, the GI50 in the experiment on K562 is 7.94 µM (inactive); in the experiment with SK-MEL-2, 12.8 µM (inactive); with NCI-H460, 10.2 µM (inactive); with SW-620, 26.2 µM (inactive); in the experiment with HOP-92 it was 16.3 µM (inactive); with NCI-H522 it was 9.89 µM (inactive). Besides, the GI50 in the experiment with Hs-578T was 10.8 µM (inactive).

As for `O=c1[nH]c(=O)n(C2C(CO)OC(CO)C2O)cc1F` (stereo not given), the GI50 in the experiment on SK-MEL-5, with SF-268, in the experiment on SN12C, in the experiment on SK-OV-3, with MDA-N and in the experiment on 786-0 was > 100 µM (inactive) each time. The GI50 with HCT-116, in the experiment with IGROV-1, in the experiment on HCC 2998, in the experiment with UACC-257, in the experiment on M14 and with SR was > 100 µM (inactive) throughout. Further, the GI50 in the experiment on K562, with SK-MEL-2, in the experiment with NCI-H460, in the experiment with SW-620, with HOP-92 and with NCI-H522 was > 100 µM (inactive) throughout. For the same molecule, in the experiment on Hs-578T, the GI50 was > 100 µM (inactive).
